Some test systems named below: MOLT-4; LOX IMVI; MDA-N; HCC 2998; IGROV-1; DU-145; SK-MEL-28; UACC-62; SW-620; CAKI-1; PC-3; SF-295; RXF 393; UACC-257; RPMI-8226; MCF7; T47D; MDA-MB-231; SK-OV-3; U-251.
What all share (assay): growth of human tumour cells (NCI), 48 h

This note sets out measurements from ChEMBL document CHEMBL1201862, “PubChem BioAssay data set” (2004).

Structures are written as SMILES.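 Where inhibition never reached the appropriate level, the endpoint shown equals the highest concentration tested. Otherwise, values were interpolated linearly from a five-concentration, 48-hour dose response in 96-well plates. Here, GI50 denotes the concentration required for 50% inhibition of growth.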 Activity calls are given as the source filed them. Rule as the data show it: active = GI50 up to about 1.1 µM and inactive = higher.

Turning to `OCC1OC(NC(=S)NCSCCC(F)(F)C(F)(F)C(F)(F)C(F)(F)C(F)(F)C(F)(F)F)C(O)C(O)C1O` (stereo not drawn), the GI50 is 21.5 µM (inactive) in the test with MOLT-4; 34.4 µM (inactive) with LOX IMVI; 43.6 µM (inactive) in the test with MDA-N; 43.8 µM (inactive) with HCC 2998; 31.8 µM (inactive) in the test with IGROV-1; 81.8 µM (inactive) with DU-145. Besides, the GI50 was 5.77 µM (inactive) with SK-MEL-28; 32.7 µM (inactive) with UACC-62; 39.4 µM (inactive) in the test on SW-620; 76 µM (inactive) with CAKI-1; 33.6 µM (inactive) with PC-3; 23.1 µM (inactive) in the test with SF-295. Also, the GI50 was 35.2 µM (inactive) in the test with RXF 393; 46.6 µM (inactive) with UACC-257; 63.8 µM (inactive) in the test with RPMI-8226; 40.8 µM (inactive) in the test on MCF7; > 100 µM (inactive) in the test on T47D; > 100 µM (inactive) in the test with MDA-MB-231. For the same molecule, the GI50 in the test on SK-OV-3 is 82 µM (inactive); with U-251 it was 17.5 µM (inactive).
For the molecule `NC1CC=C(COC(=O)C(O)(c2ccccc2)C2CC2)CC1` (stereo not drawn), the GI50 in the test with MOLT-4, in the test on LOX IMVI, with MDA-N, with HCC 2998, in the test on IGROV-1 and with DU-145 was > 100 µM (inactive) throughout. Further, the GI50 in the test on SK-MEL-28, in the test on UACC-62, in the test with SW-620, with CAKI-1, in the test on PC-3 and in the test with SF-295 was > 100 µM (inactive) each time. The GI50 in the test with RXF 393, with UACC-257, with RPMI-8226, in the test on MCF7, with T47D and in the test with MDA-MB-231 was > 100 µM (inactive) in each case. Also, the GI50 in the test with SK-OV-3 and in the test with U-251 was > 100 µM (inactive) throughout.
With `CN(/N=C(\C(=O)O)c1ccccc1)C1=NCCCCN1`, the GI50 was > 100 µM (inactive) with MOLT-4; > 100 µM (inactive) with LOX IMVI; > 100 µM (inactive) in the test with MDA-N; > 100 µM (inactive) with HCC 2998; 94.6 µM (inactive) in the test with IGROV-1; > 100 µM (inactive) with DU-145. Also, the GI50 in the test on SK-MEL-28, in the test with UACC-62, in the test on SW-620, in the test on CAKI-1, in the test with PC-3 and in the test with SF-295 was > 100 µM (inactive) throughout. For the same molecule, the GI50 in the test with RXF 393, in the test on UACC-257, in the test with RPMI-8226, in the test with MCF7, in the test with T47D and in the test on MDA-MB-231 was > 100 µM (inactive) in each case. For the same molecule, the GI50 in the test with SK-OV-3 and in the test on U-251 was > 100 µM (inactive) throughout.
`CS(=O)(=O)c1ccc(/C=N/NC(N)=S)cc1`: the GI50 with MOLT-4, in the test on LOX IMVI, in the test with MDA-N, with HCC 2998, in the test with IGROV-1 and in the test with DU-145 was > 100 µM (inactive) throughout. Also, the GI50 in the test with SK-MEL-28, in the test with UACC-62, in the test on SW-620, in the test with CAKI-1, in the test with PC-3 and in the test with SF-295 was > 100 µM (inactive) throughout. For the same molecule, the GI50 in the test with RXF 393, in the test on UACC-257, in the test with RPMI-8226, in the test on MCF7, in the test with T47D and in the test with MDA-MB-231 was > 100 µM (inactive) each time. For the same molecule, the GI50 in the test on SK-OV-3 and in the test on U-251 was > 100 µM (inactive) in each case.
On to `CC(=O)O[C@@H](C1C[C@@H](C)[C@H]2[C@@](O)(O1)[C@H](O)[C@@]1(C)C3=CC[C@H]4C(C)(C)[C@@H](OC5OCC(O)C(O)C5O)CC[C@@]45C[C@@]35CC[C@]21C)C(C)(C)O` (stereo partly drawn), for which the GI50 in the test on MOLT-4 is 12.3 µM (inactive); in the test with LOX IMVI, 19.5 µM (inactive); with MDA-N, 26.9 µM (inactive); in the test on HCC 2998, 14.3 µM (inactive); in the test with IGROV-1, 33.2 µM (inactive); in the test with DU-145 it was 25.5 µM (inactive). Moreover, the GI50 with SK-MEL-28 was 23.2 µM (inactive); in the test on UACC-62 it was 18.5 µM (inactive); in the test on SW-620, 30.2 µM (inactive); in the test on CAKI-1, 38.7 µM (inactive); in the test on PC-3, 21.7 µM (inactive); with SF-295 it was 21.1 µM (inactive). For the same molecule, the GI50 is 15.9 µM (inactive) with RXF 393; 19.7 µM (inactive) in the test on UACC-257; 18 µM (inactive) with RPMI-8226; 17.9 µM (inactive) with MCF7; 23.7 µM (inactive) with T47D; 18.3 µM (inactive) in the test with MDA-MB-231. Besides, the GI50 was 26.5 µM (inactive) with SK-OV-3 and 16.8 µM (inactive) in the test on U-251.
For `CN(C)CC1CC/C(=C\c2ccc(O)cc2)C1=O` (stereo not drawn), the GI50 is 1.69 µM (inactive) in the test with MOLT-4; 2.3 µM (inactive) with LOX IMVI; 2.71 µM (inactive) in the test on MDA-N; 10.7 µM (inactive) in the test with HCC 2998; 11.3 µM (inactive) in the test on IGROV-1; 16.1 µM (inactive) with DU-145. For the same molecule, the GI50 is 2.48 µM (inactive) in the test on SK-MEL-28; 6.12 µM (inactive) in the test with UACC-62; 2.33 µM (inactive) with SW-620; 1.63 µM (inactive) in the test on CAKI-1; 9.08 µM (inactive) in the test with PC-3; 19.2 µM (inactive) in the test on SF-295. For the same molecule, the GI50 with RXF 393 is 2.07 µM (inactive); in the test with UACC-257, 3.94 µM (inactive); with RPMI-8226, 1.02 µM (active); in the test with MCF7, 1.66 µM (inactive); in the test on T47D, 2.14 µM (inactive); with MDA-MB-231, 4.14 µM (inactive). In addition, the GI50 in the test with SK-OV-3 was 18.4 µM (inactive); in the test on U-251, 6.71 µM (inactive).
Turning to `Cc1ccc2c(O)cc(-c3cccs3)nc2n1`, the GI50 with MOLT-4 is 9.64 µM (inactive); with LOX IMVI it was 11.4 µM (inactive); in the test with MDA-N, 1.47 µM (inactive); in the test on HCC 2998, 12.9 µM (inactive); with IGROV-1, 4.86 µM (inactive); in the test with DU-145, 30.5 µM (inactive). For the same molecule, the GI50 is 7.33 µM (inactive) in the test with SK-MEL-28; 9.04 µM (inactive) in the test on UACC-62; 3.07 µM (inactive) in the test on SW-620; 15.4 µM (inactive) with CAKI-1; 11 µM (inactive) in the test on PC-3; 17 µM (inactive) with SF-295. Besides, the GI50 in the test with RXF 393 is 18.1 µM (inactive); in the test with UACC-257, > 100 µM (inactive); in the test on RPMI-8226, 5.05 µM (inactive); in the test on MCF7, 3.86 µM (inactive); in the test with T47D it was 6.64 µM (inactive); with MDA-MB-231, > 72.6 µM (inactive). Besides, the figures for the GI50 in the test with SK-OV-3 and with U-251 were 30.3 µM (inactive) and 12.1 µM (inactive), respectively.
Take `C#C/C=C/CC1OC(C(Br)CC)CC(Br)C2CC1O2` (stereo not drawn): the GI50 in the test with MOLT-4 was 29.4 µM (inactive); with LOX IMVI it was 1.71 µM (inactive); in the test with MDA-N, 80.5 µM (inactive); in the test with HCC 2998 it was 56 µM (inactive); in the test on IGROV-1, 3.25 µM (inactive); in the test on DU-145, > 100 µM (inactive). Besides, the GI50 in the test on SK-MEL-28 was 42.1 µM (inactive); in the test with UACC-62, 56.2 µM (inactive); in the test on SW-620 it was 34.8 µM (inactive); with CAKI-1, > 100 µM (inactive); with PC-3, 45.6 µM (inactive); with SF-295, > 100 µM (inactive). Further, the GI50 in the test with RXF 393 was 48.6 µM (inactive); in the test with UACC-257, > 100 µM (inactive); with RPMI-8226, 27.1 µM (inactive); in the test with MCF7, 40.2 µM (inactive); in the test with T47D, 75.3 µM (inactive); in the test on MDA-MB-231 it was > 100 µM (inactive). In addition, the results for the GI50 in the test on SK-OV-3 and with U-251 were 40.9 µM (inactive) and 78 µM (inactive), respectively.
As to `CC(C)(C)C(=O)C(C(=O)c1ccccc1)C(=O)C(C)(C)C`, the GI50 with MOLT-4, in the test on LOX IMVI, in the test with MDA-N, in the test on HCC 2998, in the test with IGROV-1 and in the test on DU-145 was > 100 µM (inactive) throughout. Moreover, the GI50 in the test on SK-MEL-28, in the test with SW-620, in the test on CAKI-1, with PC-3, in the test with SF-295 and with RXF 393 was > 100 µM (inactive) throughout. Besides, the GI50 is > 100 µM (inactive) in the test on UACC-257; > 100 µM (inactive) with RPMI-8226; > 100 µM (inactive) in the test with MCF7; > 100 µM (inactive) in the test with T47D; 98.2 µM (inactive) in the test on MDA-MB-231; > 100 µM (inactive) with SK-OV-3. In addition, the GI50 with U-251 was > 100 µM (inactive).
For `COC(=O)c1c(C(=O)OC)c2ccc(-c3ccc(Cl)cc3)nn2c1C(=O)c1ccc([N+](=O)[O-])cc1`, the GI50 in the test with MOLT-4 was 15.3 µM (inactive); in the test on LOX IMVI it was 39 µM (inactive); in the test with MDA-N, 66.2 µM (inactive); in the test on HCC 2998, > 100 µM (inactive); in the test with DU-145, > 100 µM (inactive); in the test on SK-MEL-28, > 100 µM (inactive). The GI50 in the test with UACC-62 was > 100 µM (inactive); in the test on SW-620 it was 41.5 µM (inactive); in the test on CAKI-1, 32.9 µM (inactive); in the test with PC-3 it was > 100 µM (inactive); in the test on SF-295, > 100 µM (inactive); in the test with RXF 393, 8.83 µM (inactive). Also, the GI50 in the test on UACC-257 was > 100 µM (inactive); with RPMI-8226, 16.7 µM (inactive); with MCF7, 40.2 µM (inactive); in the test with T47D it was 27.9 µM (inactive); in the test on MDA-MB-231 it was > 100 µM (inactive); in the test with SK-OV-3, > 100 µM (inactive). Also, the GI50 with U-251 was > 100 µM (inactive).
